Assay results reported in patent US20210213039A1, “COMPOSITION CONTAINING ECTOINE OR HYDROXYECTOINE AS AN ACTIVE SUBSTANCE FOR PROMOTING THE REGENERATION OF INJURED BODY TISSUE” (Bitop AG, priority 2012, published 2021).

What was measured:
[1] = tested on: porcine ex-vivo skin punches; experiment: Ex-vivo porcine wound healing model (skin punches, wound healing score); design: species or system pig; conditions: for Wound healing progress based on the PBS control (MW) / Absolute wound healing progress (wound healing score, MW): 5 μl into the wound, after 48 h; for Wound healing progress based on the PBS control (MW): PBS isotonic = 1.00; for Absolute wound healing progress (wound healing score, MW): score 0-4; for Wound healing potential: porcine ex-vivo skin punches
Method: An ex-vivo porcine wound healing model was used as it has been described in patent publication DE 103 17 400 B4.
From the plicae of washed and sterilized pig ears sample punches 6 mm in diameter were taken. From the center of the punches the epidermis and the upper dermis were removed in an area of 3 mm. Immediately after the models had been generated 5 μl of the test substances were introduced into the wounds, while 5 μl of PBS were applied into the control models. After 48 h (t48 h) the models were flash-frozen and stored at −80° C.
14 test series each were carried out so that 8 to 11 evaluable models were available for each sample.
The models were completely embedded in tissue freezing medium (company of Leica, Nussloch), and 6 μm thin sections were prepared using a cryostat. Care had been taken that the focus was always in the center of the respective model.
The sections were placed on SuperFrost object slides, air dried, fixed for 10 min. in −20° C. cold acetone, and stored at −80° C.
All models were stained with hematoxylin/eosin (2 sections each). The sequence of the staining process was as follows:
The staining was evaluated by means of a Leica light microscope DM LS and an Olympus Camedia digital camera.
0: No wound healing progress 1: Small wound tongue 2: Large wound tongue 3: Closed sheet 4: Multi-layered closed sheet.
In the event that both wound margins could be assessed the average between the left and the right wound margin was determined. The statistical evaluations were made using Student's paired T-test.

[2] = tested on: ARPE-19 cells (adherent retinal pigment epithelial cells); experiment: Re-epithelialization scratch assay; format: cell-based; conditions: for Gap width in %: after 24 h, untreated sample = 100%; for Gap width in treated cell cultures (re-epithelialization): first two days, especially in serum-free cultures
Method: After 24 hours of incubation using 0, 0.1, 0.5, 1, 2.5 and 5 mM of ectoine/hydroxyectoine in serum-free and serum-containing media defined cell areas were removed (scratch assay) from a confluent cell layer of ARPE-19 cells (adherent retinal pigment epithelial cells). The width of the applied gap was determined via microscope at previously marked places. 24 and 48 hours later in each case a photo documentation was prepared with the gap width being again determined at the respective places. 6 tests were performed for each concentration.
The mean value of the gap widths after 24 h of the sample not treated with ectoine was determined to be 100%. The following gap width percentages could be detected: […]

[3] = tested on: HaCaT cells (human skin cells); experiment: Wound closure in vitro: circular injury in a HaCaT monolayer; format: cell-based; conditions: for Area of Injury (MW): 0.5% FCS, n=4
Method: Plating of HaCaT cells (human skin cells) took place on collagen-I coated 24-well plates. With a complete medium (10% FCS=fetal calf serum) the cells grew together as monolayer within a period of 24 h.
After this cell layer had closed a circular injury was applied in the center using a sterile tip of a defined diameter that averaged 0.68 mm (0.363 mm^2).
When the injury had been applied the complete medium was changed to a starvation medium containing only 0.5 w/w of FCS (fetal calf serum) instead of 10% w/w FCS. The following test solutions were then pipetted on the cells (per solution: n=4):
0.5% FCS+PBS (phosphate buffered saline), control solution 0.5 FCS+1 mM ectoine 0.5 FCS+10 mM ectoine 0.5% FCS+100 mM ectoine.
Over a time span of 48 h the cells were incubated with the test solutions during which wound closure was documented with the aid of a digital camera. In each case photos were taken at the beginning and then at 24-h intervals. The area still found to be free in each case was measured or calculated and expressed in mm^2. The results can be seen from the following tables (SD: Standard deviation, MW: Mean value): […]

Compound: OCC(CO)O[C@H]1O[C@H](CO)[C@@H](O)[C@H](O)[C@H]1O [GG hypertonic, Glucosylglycerol]
- Wound healing progress based on the PBS control (MW) [1]: 1.17
- Absolute wound healing progress (wound healing score, MW) [1]: 1.66

Compound: CC1=NC[C@H](O)[C@@H](C(=O)O)N1 [HE hypertonic, Hydroxyectoine]
- Wound healing progress based on the PBS control (MW) [1]: 1.21
- Absolute wound healing progress (wound healing score, MW) [1]: 2.08

Compound: OCC(CO)O[C@H]1O[C@H](CO)[C@@H](O)[C@H](O)[C@H]1O [GG I, Glucosylglycerol]
- Wound healing progress based on the PBS control (MW) [1]: 1.42
- Absolute wound healing progress (wound healing score, MW) [1]: 2.12

Compound: OCC(CO)OC1OC(CO)[C@@H](O)C(O)C1O (stereo in doubt) [glucosylglycerol, 2-O-α-D-glucosylglycerol]
- Wound healing potential [1]: improved wound healing potential

Compound: CC1=NC[C@H](O)[C@@H](C(=O)O)N1 [HE I, Hydroxyectoine]
- Wound healing progress based on the PBS control (MW) [1]: 1.05
- Absolute wound healing progress (wound healing score, MW) [1]: 1.92

Compound: CC1=NCC[C@@H](C(=O)O)N1 [ectoine, (S)-2-methyl-1,4,5,6-tetrahydropyrimidine-4-carboxylic acid]
- Gap width in % ([2]; 0.1 mM ectoine): 100.687%
- Gap width in % ([2]; 0.5 mM ectoine): 96.434%
- Gap width in % ([2]; 1 mM ectoine): 91.632%
- Gap width in % ([2]; 2.5 mM ectoine): 93.012%
- Gap width in % ([2]; 5 mM ectoine): 88.418%
- Gap width in treated cell cultures (re-epithelialization) [2]: diminished faster
- Closure of the circular injury in comparison with the control solution ([3]; 1 mM ectoine): marked tendency towards faster closure
- Area of Injury (MW) ([3]; 1 mM ectoine, after 0 hours): 0.354 mm^2
- Area of Injury (MW) ([3]; 1 mM ectoine, after 24 hours): 0.157 mm^2
- Area of Injury (MW) ([3]; 1 mM ectoine, after 48 hours): 0.042 mm^2
- Closure of the circular injury in comparison with the control solution ([3]; 10 mM ectoine): marked tendency towards faster closure
- Area of Injury (MW) ([3]; 10 mM ectoine, after 0 hours): 0.351 mm^2
- Area of Injury (MW) ([3]; 10 mM ectoine, after 24 hours): 0.182 mm^2
- Area of Injury (MW) ([3]; 10 mM ectoine, after 48 hours): 0.023 mm^2
- Closure of the circular injury in comparison with the control solution ([3]; 100 mM ectoine): delayed healing
- Area of Injury (MW) ([3]; 100 mM ectoine, after 0 hours): 0.325 mm^2
- Area of Injury (MW) ([3]; 100 mM ectoine, after 24 hours): 0.244 mm^2
- Area of Injury (MW) ([3]; 100 mM ectoine, after 48 hours): 0.171 mm^2

Compound: CC1=NC[C@H](O)[C@@H](C(=O)O)N1 [hydroxyectoine, (4S,5S)-5-hydroxy-2-methyl-1,4,5,6-tetrahydropyrimidine-4-carboxylic acid]
- Re-epithelialization, hydroxyectoine compared with ectoine [2]: slightly more effective with hydroxyectoine than with ectoine
- Gap width in treated cell cultures (re-epithelialization) [2]: diminished faster
- Wound healing potential [1]: improved wound healing potential
